Reference: patent US20140171404A1, “Autotaxin inhibitors” (NOVARTIS AG, priority 2012, published 2014)
pIC50: −log10 of the molar value.

Biological target: T1, Recombinant human ATX (Homo sapiens, UniProt Q13822)
T1 construct: made in house; host or cells: human embryonic kidney (HEK) cells
Test: Assessing ATX inhibition: released choline, Amplex Red fluorescence
Type: biochemical
Conditions: ATX 10 nM, LPC 18:1 10 μM, pre-incubated with ATX at 37° C. for 20 minutes; Table 1, exemplified compounds; read-out: IC50
Method: LPC (oleoyl (18:1)) was purchased from Avanti Polar Lipids (Alabaster; AL) and solubilized in methanol to 20 mM. Amplex Red was obtained from Invitrogen Life Technologies (Paisley, UK) and dissolved in DMSO to 10 mM. Choline oxidase and horseradish peroxidase (HRP) were obtained from Sigma Aldrich (Dorset, UK) and dissolved in HBSS to 20 U/ml and 200 U/ml respectively. All reagents were stored at −20° C. in single use aliquots. All experimental measurements were performed in assay buffer made up immediately prior to use (HBSS, 0.01% BSA essentially fatty acid free).
Recombinant human ATX was prepared at Novartis (Basel, CH) in a human embryonic kidney (HEK) cell preparation, and stored in single use aliquots of […] (26 μM) stocks stored at −80° C.
All experimental measurements were performed in black 384 well polystyrene (low volume, round bottom, Corning (3676)) plates. PerkinElmer EnVision (Fluorescence Intensity/Absorbance Monochromator) or Tecan Infinite 200 PRO series plate reader was used to detect change in fluorescent intensity.
ATX activity was determined by measurement of released choline in reactions containing ATX (10 nM), choline oxidase (0.1 U/ml), HRP (100 U/ml), amplex red (50 μM) and LPC 18:1 (10 μM). Compounds of the invention were prepared as 10 point serial dilutions from 1 μM in duplicate and pre-incubated with ATX at 37° C. for 20 minutes prior to the addition of remaining reagents. The liberated choline was measured from changes in fluorescence intensity (λex 530 nm, λem 590 nm) of the product resurofin at 37° C. every 2 minutes over a 40-minute period. ATX activity was measured as a slope of the linear portion of the progress curve, typically between 14 to 24 minutes.
Slope data was exported to Graphpad prism (Graphpad software, San Diego, Calif.) where data was fitted to equation 1.
Y=Bottom+(Top−Bottom)/(1+10̂((Log IC50−X)*HillSlope)) Equation 1: […]

SMILES	pIC50
O=C(CCCc1c[nH]nn1)NC1CCN(C(=O)/C=C/c2ccc(Cl)cc2Cl)CC1 [Example 39, (E)-N-(1-(3-(2,4-Dichlorophenyl)acryloyl)piperidin-4-yl)-4-(1H-1,2,3-triazol-4-yl)butanamide]	7.11
O=C(CCc1cc(O)no1)NCC1CCN(C(=O)OCc2cc(Cl)cc(Cl)c2)CC1 [Example 33, 3,5-Dichlorobenzyl 4-((3-(3-hydroxyisoxazol-5-yl)propanamido)methyl)piperidine-1-carboxylate]	6.88
CN(CCC1CCN(C(=O)OCc2cc(Cl)cc(Cl)c2)CC1)C(=O)c1coc(=O)[nH]1 [Example 24, 3,5-Dichlorobenzyl 4-(2-(N-methyl-2-oxo-2,3-dihydrooxazole-4-carboxamido)ethyl)piperidine-1-carboxylate]	6.20
Cc1cc(Cl)cc(COC(=O)N2CCC(NC(=O)CCCc3c[nH]nn3)CC2)c1 [Example 56, 3-Chloro-5-methylbenzyl 4-(4-(1H-1,2,3-triazol-4-yl)butanamido)piperidine-1-carboxylate]	8.00
O=C(CCCc1c[nH]nn1)NC1CCN(C(=O)CCc2ccc(Cl)cc2Cl)CC1 [Example 43, N-(1-(3-(2,4-Dichlorophenyl)propanoyl)piperidin-4-yl)-4-(1H-1,2,3-triazol-4-yl)butanamide]	6.95
O=C(CCCc1c[nH]nn1)NC1CN(C(=O)OCc2cc(Cl)cc(Cl)c2)C1 [Example 50, 3,5-Dichlorobenzyl 3-(4-(1H-1,2,3-triazol-4-yl)butanamido)azetidine-1-carboxylate]	7.92
N#Cc1cc(Cl)cc(COC(=O)N2CCC(NC(=O)CCCCc3c[nH]nn3)CC2)c1 [Example 64, 3-Chloro-5-cyanobenzyl 4-(5-(1H-1,2,3-triazol-4-yl)pentanamido)piperidine-1-carboxylate]	8.10
O=C(CC1CCN(C(=O)OCc2cc(Cl)cc(Cl)c2)CC1)NCCc1c[nH]nn1 [Example 61, 3,5-Dichlorobenzyl 4-(2-((2-(1H-1,2,3-triazol-4-yl)ethyl)amino)-2-oxoethyl)piperidine-1-carboxylate]	7.82
O=C(OCc1cc(Cl)cc(Cl)c1)N1CCC(CCNc2c(O)c(=O)c2=O)CC1 [Example 4]	6.14
O=C(CCCc1c[nH]nn1)NC1CCN(C(=O)COc2cc(Cl)cc(Cl)c2)CC1 [Example 55, N-(1-(2-(3,5-Dichlorophenoxy)acetyl)piperidin-4-yl)-4-(1H-1,2,3-triazol-4-yl)butanamide]	6.81
